The values that follow come from patent US20130064815A1, “INDUCING APOPTOSIS IN QUIESCENT CELLS” (THE TRUSTEES OF PRINCETON UNIVERSITY, priority 2011, published 2013).

Structures are written as SMILES.

The subject of data set [1] is primary human fibroblasts. Briefly: caspase 3/7 activity apoptosis assay (ApoTox-Glo) in proliferating and quiescent fibroblasts. In kind it is cell-based. Conditions: for effect on MG132-induced apoptosis: 2-ME with increasing MG132. As to the method: Referring to FIG. 2A, primary human fibroblasts were tested either in a proliferating state or after being induced into quiescence. Quiescence may be induced by either contact inhibition or serum starvation. Cells were treated with DHEA for four days, with bafilomycin added on the fourth day. Apoptosis was assessed based on the activity of caspase 3/7 for a fluorogenic substrate.
PPP inhibition and apoptosis analysis: Apoptosis was measured based on the levels of caspase 3/7 released into the media using the ApoTox-Glo Triplex Assay according to the manufacturer's instructions (Promega Corp., Madison, Wis.). Cells were plated in triplicate at 10,000 cells per well in white-walled, clear-bottom 96-well plates (Costar, Corning Life Sciences, Lowell, Mass.). For contact inhibition, cells were plated 7 days prior to the start of treatment, for serum starvation cells were plated 4 days prior to treatment and switched to 0.1% serum media for the remaining 3 days, while proliferating cells were plated the day prior to the start of treatment. […] Cells in serum starvation conditions were incubated in 0.1% serum during treatment as well. The apoptosis reagent was added at 100 μl per well and incubated for 1 h prior to reading. Luminescence was read from the top using a Synergy-2 plate reader (Biotek, Winooski, Vt.). Luminescence data were normalized to the vehicle only condition.
Apoptosis induction was assessed by monitoring caspase 3/7 activity using a luminescent caspase substrate. This assay is optimized for high-throughput screening in 96-well plates and allows multiple concentrations and combination of drugs to be tested in triplicate at different time points. […] Therefore, this assay was used to compare proliferating and serum-starved cells only.

Data set [2] deals with skin papillomas and carcinomas. Conditions: cited from earlier work; for skin papilloma development: mouse.
Data set [3] has as its system breast cancer cell lines. Conditions: cited from earlier work.
For data set [4], the system named is neoplasms, lymphoblastic lymphoma. To be noted: p53-deficient mouse; cited from earlier work.
For data set [5], the system named is LC3-II. Briefly: LC3-II immunoblot (autophagy / autophagic flux). The class given is cell-based, human. As to the method:
(§1) The levels of autophagy components—Atg5/Atg12, Atg7, Atg3, and LC3-I and LC3-II—were monitored in proliferating and contact-inhibited fibroblasts using immunoblotting (FIG. 21A). As a positive control for autophagy induction, samples of cells in each cell cycle state were also incubated in Kreb's Ringer Bicarbonate solution (KRB), a protocol that induces autophagy through amino acid starvation and elimination of other nutrients except glucose. Levels of Atg5/Atg12, Atg7, and LC3-II were elevated in all of the amino acid starvation and contact-inhibition states as compared to the proliferating state (FIG. 21A). Atg3 was induced in all quiescent states compared with proliferating states, including amino acid starvation. In order to differentiate whether the high levels of autophagy proteins resulted from a blockade of autophagy degradation or active flux through the pathway, we monitored the levels of LC3-II in proliferating and 7 dCI fibroblasts in the presence of bafilomycin A1 (Baf-A1). Baf-A1 is a vacuolar-type H^+-ATPase inhibitor that prevents autophagosome fusion with the lysosome due to an increase in lysosomal pH. […] This finding is consistent with active autophagic flux in quiescent fibroblasts
In addition to its role in providing amino acids and energy under starvation conditions, autophagy is involved in maintenance of cellular homeostasis and resistance to tumorigenesis through degradation of old or damaged proteins and entire organelles. It was hypothesized that autophagy in contact-inhibited cells could function to degrade old and/or damaged proteins that would otherwise accumulate in the cytoplasm due to lack of cell division as a mechanism for dilution of these proteins. Oxidation of proteins causes the formation of carbonyl groups on amino acids, and carbonylation can disrupt protein function. To monitor the extent of protein oxidation in proliferating and contact-inhibited fibroblasts, the protein carbonyl groups were derivatized using 2,4-dinitrophenylhydrazine (DNP), and monitored using immunoblotting with an antibody that recognizes the covalently added DNP. The levels of oxidized proteins in proliferating and 7 dCI fibroblasts were monitored in cells that were either competent to perform autophagy (control), or were stably expressing an shRNA against the essential autophagy components Atg5 (sh-Atg5) or Atg7 (sh-Atg7), which are known to represent autophagy-defective phenotypes in other model systems. […] In contact-inhibited fibroblasts, in contrast, the levels of oxidized proteins increased 1.5-fold±0.1 in 7 dCI sh-Atg5 fibroblasts as compared to vector control counterparts (p=0.009) (FIG. 22B). […]
To test this hypothesis, the levels of an autophagy-specific form of the LC3 protein, LC3 II, were monitored compared to a housekeeping protein (Klionsky et al., 2008, “Guidelines for the use and interpretation of assays for monitoring autophagy in higher eukaryotes,” Autophagy 4, 151-175, which is incorporated herein by reference as if fully set forth). […]
We observed an increase in the ratio of LC3 II to GAPDH in response to MG132 treatment for cells in proliferating, contact-inhibited and serum-starved states (FIG. 25B). To test whether the high levels of LC3 II in quiescent cells in response to MG132 treatment result from a blockade of autophagy degradation or from active flux through the pathway, LC3 II levels were monitored in proliferating and quiescent fibroblasts treated with MG132 in the presence or absence of bafilomycin A1 (Baf). […]
Background: Immunoblotting shows a protein as a band on a membrane.

The test system of data set [6] is p62/SQSTM1. In words: p62 immunoblot (autophagic flux). In kind it is cell-based, human. To be noted: contact-inhibited (7 dCI) fibroblasts vs proliferating or vehicle/non-treated controls. On the procedure:
as §1

The test system of data set [7] is four day serum starved fibroblasts. Briefly: induction of apoptosis in quiescent fibroblasts by DHEA and/or autophagy inhibitor combined with proteasome inhibitors. The class given is cell-based, human. To be noted: proteasome inhibitor alone; four day serum starved fibroblasts. On the procedure:
Referring to FIG. 17, the effect of treatment using DHEA and/or an autophagy inhibitor combined with proteasome inhibitors on apoptosis in quiescent cells was analyzed.
In this experiment, the proteasome inhibitor, bortezomib, was used in varying concentrations with DHEA during a 48 hour treatment.

For data set [8], the system named is proliferating and quiescent fibroblasts. In words: annexin V / PI flow cytometry after proteasome inhibition. The class given is cell-based, human. Conditions: 24 hours. As to the method:
To elucidate the responses of proliferating and quiescent fibroblasts to proteasome inhibition, the effects of known proteasome inhibitors on proliferating and quiescent fibroblasts were examined.
At the highest dose (10 μM), approximately 50% of proliferating cells were apoptotic (FIG. 24A-lower right (Q4), upper right (Q2), and upper left (Q1) quadrants represent early apoptosis, late apoptosis, and very late apoptosis or necrosis, respectively). In comparison, quiescent fibroblasts were largely unaffected by MG132 treatment, showing far lower levels of apoptosis.
Background: In flow cytometry, cells or beads pass a laser one at a time.

Data set [9] relates to tumor cells. Conditions: intraperitoneal injection of tumor cells; cited from earlier work.

As to `COc1cc2c(cc1O)CC[C@@H]1[C@@H]2CC[C@]2(C)[C@@H](O)CC[C@@H]12` [2-ME, 2-methoxyestradiol], the figures for the “effect on MG132-induced apoptosis” value in data set [1] (proliferating fibroblasts) and in data set [1] (serum-starved fibroblasts) were “little effect” and “sensitized”, respectively.
In the case of `C[C@H]1CC[C@@]2(C)C(=CC[C@@H]3[C@@H]2CC[C@]2(C)C(=O)CC[C@@H]32)C1` [3-β-methylandrost-5-en-17-one], in [2], the skin papilloma development entry is recorded as “inhibits skin papilloma development”. Also, the “development of skin papillomas and carcinomas” value in [2] (topical 7,12-dimethylbenz(a)anthracene (DMBA), mice) is on record as “even more potent chemopreventive effect”.
Turning to `FC(F)(F)c1ccc2c(N3CCN(CCCNc4ccnc5cc(Cl)ccc45)CC3)ccnc2c1` [7-chloro-N-(3-(4-(7-trifluoromethyl)quinolin-4-yl)piperazin-1-yl)propyl)quinolin-4-amine], in data set [3], the antiproliferative effects result is “very effective”.
`C[C@]12CCCC[C@@H]1CC[C@@H]1[C@@H]2CC[C@]2(C)C(=O)[C@H](F)C[C@@H]12` [16a-fluoro-5a-androstan-17-one]: in [2], the skin papilloma development entry is “effective in inhibiting skin papilloma development”.
Turning to `C[C@]12CCCCC1=CC[C@@H]1[C@@H]2CC[C@]2(C)C(=O)[C@H](F)C[C@@H]12` [16α-fluoro-5-androsten-17-one], in data set [2], the skin papilloma development entry is “effective in inhibiting skin papilloma development”. Besides, in data set [4], the “death due to neoplasms” value was “delay death due to neoplasms”.
Regarding `CO/C1=C\C(C)=C\[C@@H](C)[C@@H](O)[C@@H](C)C/C(C)=C/C=C/[C@H](OC)[C@@H]([C@@H](C)[C@@H](O)[C@H](C)[C@@]2(O)C[C@@H](O)[C@H](C)[C@@H](C(C)C)O2)OC1=O` [Baf, bafilomycin A1], the “effect on MG132-induced caspase 3/7 activity” value in [1] (100 nM Baf, proliferating cells, 24 hours post treatment) is listed as “slight reduction”. For the same molecule, the “effect on MG132-induced apoptosis (caspase 3/7)” value in data set [1] (100 nM Baf, proliferating fibroblasts, 48 hours post treatment) was “no significant effect”; in [1] (100 nM Baf, serum-starved fibroblasts), “strongly enhanced”. For the same molecule, the “effect on bortezomib-induced caspase 3/7 activity” value is “reduced” in [1] (proliferating fibroblasts, 24 hours post treatment) and “little effect” in [1] (proliferating fibroblasts, after 48 hours). The “induction of apoptosis in the presence of Baf vs MG132 alone” value in [1] (serum-starved fibroblasts, 48 hours, 10 μM MG132) is “more than doubled”. The “LC3 II to GAPDH ratio vs MG132 alone” value in data set [5] (Baf combined with MG132, serum-starved cells) is listed as “did not change”; in data set [5] (Baf in conjunction with MG132, proliferating and contact-inhibited cells) it was “further increase”. In addition, in [5] (Baf-treated proliferating and quiescent cells), the “ratio of LC3 II to GAPDH” value was “increase”. Also, the “levels of LC3-II” value in data set [5] (contact-inhibited (7 dCI) fibroblasts vs proliferating or vehicle/non-treated controls) is “further increase”. Moreover, in data set [6], the “levels of p62/SQSTM1” value is “further increase”.
Take `CC(C)C[C@H](NC(=O)[C@H](Cc1ccccc1)NC(=O)c1cnccn1)B(O)O` [bortezomib]: the “induction of apoptosis (caspase 3/7)” value in [1] (bortezomib, serum-starved compared to proliferating fibroblasts) is “relatively low”. The apoptotic induction result in [7] is “did not result in apoptotic induction”.
For `CC[C@H](C)[C@H](NC(=O)[C@H]([C@@H](C)CC)N(C)C(C)=O)C(=O)N[C@H](C(=O)N[C@@H](CC(C)C)C(=O)[C@@]1(C)CO1)[C@@H](C)O` [epoxomicin], the “reduction of viability of proliferating cells” value in data set [8] (1 μM) is approximately 50%. Further, in data set [8] (proliferating cells), the “proliferating cell viability (fraction PI negative)” value is recorded as “statistically significant, dose-dependent decrease”. In data set [8] (quiescent cells, up to 10 μM MG132, 1 μM epoxomicin), the quiescent cell viability result is recorded as “maintained high viability”.
As for `CCN(CCO)CCCC(C)Nc1ccnc2cc(Cl)ccc12` (stereo not drawn) [hydroxychloroquine], in [1] (serum starved fibroblasts, FIG. 2B), the induction of apoptosis result is reported as “induction of apoptosis”.
Turning to `Cc1ncc(C[n+]2csc(CCO)c2C)c(=O)[nH]1` [oxythiamine], the tumor growth result in data set [9] is “inhibit tumor growth”.
`FC(F)(F)c1ccc2c(NCCCN3CCN(c4ccnc5cc(Cl)ccc45)CC3)ccnc2c1` [{3-[4-(7-chloro-quinolin-4-yl)-piperazin-1-yl]-propyl}-(7-rifluoromethyl-quinolin-4-yl)-amine]: the antiproliferative effects entry in [3] is recorded as “very effective”.
